{"source": "patent US20250000822A1", "about": "“USE OF 2-HYDROXYBENZYLAMINE FOR THE TREATMENT OF SYSTEMIC LUPUS” (Vanderbilt University, priority 2019, published 2025)", "key": {"[1]": {"assay": "reaction of 2-HOBA with isoLGs (isoLG scavenging)", "from_the_text": "(§1) 2-HOBA, for example, is naturally found in buckwheat seeds. 2-HOBA is highly reactive and found to react with isoLGs at a rate more than 3 orders of magnitude faster than the e-amine of lysine (see FIG. 3). By selectively reacting with isoLGs, 2-HOBA inhibits isoLG:protein adduct formation and subsequent isoLG-induced cell dysfunction."}, "HepG2 cells": {"tested_on": "HepG2 cells", "assay": "protection of HepG2 cells against H2O2-induced cytotoxicity", "format": "cell-based", "from_the_text": "as §1"}, "B6.SLE123 mice [2]": {"tested_on": "B6.SLE123 mice", "assay": "isoLG adduct accumulation in monocytes and dendritic cells of SLE-prone mice (flow cytometry)", "format": "in vivo", "details": "B6.SLE123 mice treated from 7 weeks of age, analysed at 32 weeks", "description": "Quantitation of isoLG-adduct containing cells in (C) splenic DCs (D) circulating monocytes. (n=5-9, *P<0.05, **P<0.01, ***P<0.001, ****P<0.0001).\nThe present inventors have also shown that 2-HOBA reduces isoLG accumulation in monocytes and dendritic cells (DCs) of SLE-prone mice. B6.SLE123 mice were treated with 2-HOBA starting at 7 weeks of age (prior to disease presentation). At 32 weeks of age, peripheral blood, spleen, and bone marrow cells were harvested from B6.SLE123 and control (C57BL/6) mice. Flow cytometry was used to detect the surface markers CD11c, IAb, CD11b, F4/80, and Ly6c and isoLG adducts."}, "B6.SLE123 mice [3]": {"tested_on": "B6.SLE123 mice", "assay": "SLE-associated renal inflammation, B6.SLE123 mice", "format": "in vivo", "description": "Single cell suspensions were prepared from freshly isolated mouse kidney via enzymatic digestion and mechanical dissociation. Live cell singlets were analyzed. Representative FACS plots are presented for (A) CD3^+ T-cells. Quantitation of (B) CD45^+ leukocytes and (C) CD3^+ T-cells are represented. (n=6-8, *P<0.05, **P<0.01).\nThe present inventors have also shown that 2-HOBA reduces SLE-associated inflammation."}, "B6.SLE123 mice [4]": {"tested_on": "B6.SLE123 mice", "assay": "SLE-associated renal injury and dysfunction, B6.SLE123 mice", "format": "in vivo", "description": "Kidneys were sectioned and stained with […] silver stain; (A) representative glomeruli are presented. (B) Mice received IP injection of 4% normal saline at 10% of body weight and urine output was measured over 4 hours. (C) Urine albumin/creatine ratio. (D) Urinary NGAL. (n=6-8, *P<0.05, **P<0.01, ****P<0.0001).\nThe present inventors have also shown that 2-HOBA protects against SLE-associated renal injury and dysfunction. […] To assess renal function, 2-HOBA treated and untreated B6.SLE123 animals were injected with 4% normal saline at a volume equal to 10% of their body weight, and urine volume was measured over 4 hours."}, "B6.SLE123 mice [5]": {"tested_on": "B6.SLE123 mice", "assay": "plasma cell expansion and antibody titers, B6.SLE123 mice", "format": "in vivo", "description": "(A) Representative FACS plots displaying CD138^+ and intracellular Igκ-light-chain^+ plasma cells from bone marrow. Quantitation of plasma cells as a percentage of CD45 cells are represented for (B) bone marrow. (C) Anti-dsDNA IgG antibody and (D) total plasma IgG at 1:100K dilution were analyzed by ELISA. (n=5-7, *P<0.05, **P<0.01, ***P<0.001, ****P<0.0001).\nThe present inventors have also shown that 2-HOBA reduces bone marrow plasma cell expansion and anti-dsDNA antibody titers. SLE is associated with an expansion of plasma cells and an amplification of auto-antibodies. Autoreactive plasma cells are believed to play an important role in SLE by generating antibodies that lead to the creation of immune complexes which deposit in peripheral tissues. Flow cytometry was performed to identify CD138^+/Igκ-light-chain^+ plasma cells in spleen and bone marrow cell preparations from B6.SLE123 animals treated with vehicle or 2-HOBA. B6.SLE123 animals had significant accumulation of spleen and bone marrow plasma cells which were attenuated by 2-HOBA (FIG. 7A-C)."}, "healthy human volunteers [6]": {"tested_on": "healthy human volunteers", "details": "single doses up to 825 mg (highest dose tested); cited from earlier work"}, "healthy human volunteers [7]": {"tested_on": "healthy human volunteers", "details": "500 and 750 mg TID for 2 weeks; cited from earlier work"}, "[8]": {"details": "in vitro, in animals, or in humans, to date; cited from earlier work"}, "[9]": {"details": "SLE-prone mice, kidney sections"}, "[10]": {"details": "B6.SLE123, CD138+/Igκ-light-chain+ cells, flow cytometry"}}, "note": "Entries after “also recorded” stand apart in the source; their conditions may differ.", "data": [{"compound": "NCc1ccccc1O", "note": "[2-HOBA, 2-hydroxybenzylamine]", "values": [{"measurement": "isoLG scavenging", "setting": "[1]", "value": "potent isoLG scavengers"}, {"measurement": "rate of reaction with isoLGs, faster than the e-amine of lysine", "setting": "[1]; relative to e-amine of lysine", "value": "more than 3 orders of magnitude"}, {"measurement": "protection against H2O2-induced cytotoxicity", "setting": "HepG2 cells", "value": "dramatically protected"}, {"measurement": "isoLG accumulation in monocytes", "setting": "B6.SLE123 mice [2]; peripheral blood monocytes", "value": "efficient scavenging; also recorded: significantly attenuated"}, {"measurement": "isoLG accumulation in DCs", "setting": "B6.SLE123 mice [2]; splenic dendritic cells", "value": "efficient scavenging; also recorded: significantly attenuated"}, {"measurement": "renal inflammation", "setting": "B6.SLE123 mice [3]", "value": "markedly reduced"}, {"measurement": "renal CD3+ T-cells", "setting": "B6.SLE123 mice [3]; kidney, flow cytometry", "value": "reduction"}, {"measurement": "renal CD45+ cells", "setting": "B6.SLE123 mice [3]; kidney, flow cytometry", "value": "reduction"}, {"measurement": "albumin to creatinine ratio", "setting": "B6.SLE123 mice [4]; B6.SLE123 mice, urine", "value": "improved"}, {"measurement": "NGAL excretion", "setting": "B6.SLE123 mice [4]; B6.SLE123 mice, urine, marker of tubular injury", "value": "improved"}, {"measurement": "urine volume", "setting": "B6.SLE123 mice [4]; B6.SLE123 mice, over 4 hours after injection of 4% normal saline at 10% of body weight", "value": "improved"}, {"measurement": "glomerular hypercellularity", "setting": "B6.SLE123 mice [4]; [9]", "value": "markedly improved"}, {"measurement": "immune complex deposition", "setting": "B6.SLE123 mice [4]; [9]", "value": "markedly improved"}, {"measurement": "renal injury and dysfunction", "setting": "B6.SLE123 mice [4]; mouse model of SLE (FIG. 6 legend)", "value": "attenuates"}, {"measurement": "plasma anti-dsDNA antibody titers", "setting": "B6.SLE123 mice [5]; B6.SLE123, ELISA", "value": "reduces; also recorded: markedly lower"}, {"measurement": "total IgG antibody titers", "setting": "B6.SLE123 mice [5]; B6.SLE123, plasma, ELISA", "value": "reduces; also recorded: markedly lower"}, {"measurement": "accumulation of bone marrow plasma cells", "setting": "B6.SLE123 mice [5]; [10]", "value": "reduces; also recorded: attenuated"}, {"measurement": "accumulation of spleen plasma cells", "setting": "B6.SLE123 mice [5]; [10]", "value": "attenuated"}, {"measurement": "safety and tolerability of single doses", "setting": "healthy human volunteers [6]", "value": "safe and well-tolerated"}, {"measurement": "accumulation of 2-HOBA and its primary metabolite", "setting": "healthy human volunteers [7]", "value": "low"}, {"measurement": "serious adverse events", "setting": "healthy human volunteers [7]", "value": "no serious adverse events"}, {"measurement": "tolerability of multiple doses", "setting": "healthy human volunteers [7]", "value": "well tolerated"}, {"measurement": "serious adverse effects or potential issues observed", "setting": "[8]", "value": "no serious adverse effects or potential issues"}]}]}
